According to patent publication US4401604A, “Process for preparing thiosulfenamide derivatives of N-phosphonomethylglycine triesters” (Monsanto Company, priority 1981, dated 1983):

Key:
Assay type in all cases: in vivo
Lambsquarters [1] = assay: Pre-emergent herbicidal activity; details: Table III; 11.2 kg/h; 2 WAT
From the text: (§1) A good grade of top soil is placed in aluminum pans and compacted to a depth of 0.95 to 1.27 cm. from the top of each pan. A predetermined number of seeds or vegetative propagules of each of several plant species are placed on top of the soil in each pan and then pressed down. Herbicidal compositions prepared as in the previous example are applied by admixture with or incorporation in the top layer of soil.
(§2) In this method, the soil required to cover the seeds and propagules is weighed and admixed with a herbicidal composition containing a known amount of the active ingredient (compound of this invention). The pans are then filled with the admixture and leveled. Watering is carried out by permitting the soil in the pans to absorb moisture through apertures in the pan bottoms. The seed and propagule containing pans are placed on a wet sand bench and maintained for approximately two weeks under ordinary conditions of sunlight and watering. At the end of this period, the number of emerged plants of each species is noted and compared to an untreated control.
(§3) The pre-emergent herbicidal activity index used below is based upon average percent control of each species as follows:
(§4) Plant species in the table are identified by the same code letters used in the previous example.

Cocklebur [2] = assay: Pre-emergent herbicidal activity; details: Table III; 11.2 kg/h; 2 WAT
From the text: as §1, §2, §3, §4

Barnyardgrass [3] = assay: Pre-emergent herbicidal activity; details: Table III; 11.2 kg/h; 2 WAT
From the text: as §1, §2, §3, §4

Velvetleaf [4] = assay: Pre-emergent herbicidal activity; details: Table III; 11.2 kg/h; 2 WAT
From the text: as §1, §2, §3, §4

Morningglory [5] = assay: Pre-emergent herbicidal activity; details: Table III; 11.2 kg/h; 2 WAT
From the text: as §1, §2, §3, §4

Johnsongrass [6] = assay: Pre-emergent herbicidal activity; details: Table III; 11.2 kg/h; 2 WAT
From the text: as §1, §2, §3, §4

Quackgrass [7] = assay: Pre-emergent herbicidal activity; details: Table III; 11.2 kg/h; 2 WAT
From the text: as §1, §2, §3, §4

Yellow Nutsedge [8] = assay: Pre-emergent herbicidal activity; details: Table III; 11.2 kg/h; 2 WAT
From the text: as §1, §2, §3, §4

Downy Brome [9] = assay: Pre-emergent herbicidal activity; details: Table III; 11.2 kg/h; 2 WAT
From the text: as §1, §2, §3, §4

Lambsquarters [10] = assay: Post-emergence herbicidal activity, greenhouse; details: 4 WAT
From the text: (§5) A good grade of top soil is placed in aluminum pans having holes in the bottom and compacted to a depth of 0.95 to 1.27 cm. from the top of the pan. A predetermined number of seeds of each of several dicotyledonous and monocotyledonous annual plant species and/or vegetative propagules for the perennial plant species are placed on the soil and pressed into the soil surface. The seeds and/or vegetative propagules are covered with soil and leveled. The pans are then placed on a sand bench in the greenhouse and watered from below as needed. After the plants reach the desired age (two to three weeks), each pan except for the control pans is removed individually to a spraying chamber and sprayed by means of an atomizer operating at a positive air pressure of approximately 1.46 kg/cm^2 absolute. The atomizer contains 6 ml. of a solution or suspension of the chemical. In that 6 ml., is an amount of a cyclohexanone emulsifying agent mixture to give a spray solution or suspension which contains about 0.4% by weight of the emulsifier. The spray solution or suspension contains a sufficient amount of the candidate chemical in order to give application rates corresponding to those set forth in the tables. The spray solution is prepared by taking an aliquot of a 1.0% by weight stock solution or suspension of the candidate chemical in an organic solvent such as acetone or tetrahydrofuran or in water. The emulsifying agent employed is a mixture comprising 35 weight percent butylamine dodecylbenzene sulfonate and 65 weight percent of a tall oil ethylene oxide condensate having about 11 moles of ethylene oxide per mole of tall oil. The pans are returned to the greenhouse and watered as before and the injury to the plants as compared to the control is observed at approximately two and four weeks as indicated in the tables under WAT and the results recorded. In some instances, the two-week observations are omitted.
(§6) The post-emergence herbicidal activity index used in Table I is as follows:
(§7) The plant species utilized in these tests are identified by letter in accordance with the following legend: […]

Hemp Sesbania = assay: Post-emergence herbicidal activity, greenhouse; details: Table II, 4 WAT
From the text: as §5, §6, §7

Sorghum = assay: Post-emergence herbicidal activity, greenhouse; details: Table II, 4 WAT
From the text: as §5, §6, §7

Cocklebur [11] = assay: Post-emergence herbicidal activity, greenhouse; details: 4 WAT
From the text: as §5, §6, §7

Barnyardgrass [12] = assay: Post-emergence herbicidal activity, greenhouse; details: 4 WAT
From the text: as §5, §6, §7

Velvetleaf [13] = assay: Post-emergence herbicidal activity, greenhouse; details: 4 WAT
From the text: as §5, §6, §7

Soybean = assay: Post-emergence herbicidal activity, greenhouse; details: Table II, 4 WAT
From the text: as §5, §6, §7

Morningglory [14] = assay: Post-emergence herbicidal activity, greenhouse; details: 4 WAT
From the text: as §5, §6, §7

Johnsongrass [15] = assay: Post-emergence herbicidal activity, greenhouse; details: Table I, 4 WAT
From the text: as §5, §6, §7

Sugar Beet = assay: Post-emergence herbicidal activity, greenhouse; details: Table II, 4 WAT
From the text: as §5, §6, §7

Quackgrass [16] = assay: Post-emergence herbicidal activity, greenhouse; details: Table I, 4 WAT
From the text: as §5, §6, §7

Smartweed = assay: Post-emergence herbicidal activity, greenhouse; details: 4 WAT
From the text: as §5, §6, §7

Yellow Nutsedge [17] = assay: Post-emergence herbicidal activity, greenhouse; details: Table I, 4 WAT
From the text: as §5, §6, §7

Wild Buckwheat = assay: Post-emergence herbicidal activity, greenhouse; details: Table II, 4 WAT
From the text: as §5, §6, §7

Downy Brome [18] = assay: Post-emergence herbicidal activity, greenhouse; details: 4 WAT
From the text: as §5, §6, §7

Wheat = assay: Post-emergence herbicidal activity, greenhouse; details: Table II, 4 WAT
From the text: as §5, §6, §7

Panicum Spp = assay: Post-emergence herbicidal activity, greenhouse; details: Table II, 4 WAT
From the text: as §5, §6, §7

Canada Thistle = assay: Post-emergence herbicidal activity, greenhouse; details: Table I, 4 WAT
From the text: as §5, §6, §7

Rice = assay: Post-emergence herbicidal activity, greenhouse; details: Table II, 4 WAT
From the text: as §5, §6, §7

Crabgrass = assay: Post-emergence herbicidal activity, greenhouse; details: Table II, 4 WAT
From the text: as §5, §6, §7

CCOC(=O)CN(CP(=O)(Oc1ccc(OC)cc1)Oc1ccc(OC)cc1)SSC [VI, Glycine, N-[[bis(4-methoxyphenoxy)phosphinyl]methyl]-N-(methyldithio)-, ethyl ester]
pre-emergent herbicidal activity index (Lambsquarters [1]): 0 (0-24% control)
pre-emergent herbicidal activity index (Cocklebur [2]): 0 (0-24% control)
pre-emergent herbicidal activity index (Barnyardgrass [3]): 0 (0-24% control)
pre-emergent herbicidal activity index (Velvetleaf [4]): 0 (0-24% control)
pre-emergent herbicidal activity index (Morningglory [5]): 0 (0-24% control)
pre-emergent herbicidal activity index (Johnsongrass [6]): 0 (0-24% control)
pre-emergent herbicidal activity index (Quackgrass [7]): 0 (0-24% control)
pre-emergent herbicidal activity index (Yellow Nutsedge [8]): 0 (0-24% control)
pre-emergent herbicidal activity index (Downy Brome [9]): 0 (0-24% control)
post-emergence herbicidal activity index (Lambsquarters [10]; Table I, 5.6 kg/h): 3 (75-99% control)
post-emergence herbicidal activity index (Lambsquarters [10]; Table I, 11.2 kg/h): 3 (75-99% control)
post-emergence herbicidal activity index (Lambsquarters [10]; Table II, 0.28 kg/h): 0 (0- 24% control)
post-emergence herbicidal activity index (Lambsquarters [10]; Table II, 1.12 kg/h): 2 (50-74% control)
post-emergence herbicidal activity index (Lambsquarters [10]; Table II, 5.6 kg/h): 4 (100% control)
post-emergence herbicidal activity index (Hemp Sesbania; 0.28 kg/h): 0 (0- 24% control)
post-emergence herbicidal activity index (Hemp Sesbania; 1.12 kg/h): 0 (0- 24% control)
post-emergence herbicidal activity index (Hemp Sesbania; 5.6 kg/h): 3 (75-99% control)
post-emergence herbicidal activity index (Sorghum; 0.28 kg/h): 0 (0- 24% control)
post-emergence herbicidal activity index (Sorghum; 1.12 kg/h): 2 (50-74% control)
post-emergence herbicidal activity index (Sorghum; 5.6 kg/h): 3 (75-99% control)
post-emergence herbicidal activity index (Cocklebur [11]; Table I, 5.6 kg/h): 2 (50-74% control)
post-emergence herbicidal activity index (Cocklebur [11]; Table I, 11.2 kg/h): 3 (75-99% control)
post-emergence herbicidal activity index (Cocklebur [11]; Table II, 0.28 kg/h): 0 (0- 24% control)
post-emergence herbicidal activity index (Cocklebur [11]; Table II, 1.12 kg/h): 3 (75-99% control)
post-emergence herbicidal activity index (Cocklebur [11]; Table II, 5.6 kg/h): 4 (100% control)
post-emergence herbicidal activity index (Barnyardgrass [12]; Table I, 5.6 kg/h): 4 (100% control)
post-emergence herbicidal activity index (Barnyardgrass [12]; Table I, 11.2 kg/h): 3 (75-99% control)
post-emergence herbicidal activity index (Barnyardgrass [12]; Table II, 0.28 kg/h): 0 (0- 24% control)
post-emergence herbicidal activity index (Barnyardgrass [12]; Table II, 1.12 kg/h): 3 (75-99% control)
post-emergence herbicidal activity index (Barnyardgrass [12]; Table II, 5.6 kg/h): 4 (100% control)
post-emergence herbicidal activity index (Velvetleaf [13]; Table I, 5.6 kg/h): 1 (25-49% control)
post-emergence herbicidal activity index (Velvetleaf [13]; Table I, 11.2 kg/h): 2 (50-74% control)
post-emergence herbicidal activity index (Velvetleaf [13]; Table II, 0.28 kg/h): 0 (0- 24% control)
post-emergence herbicidal activity index (Velvetleaf [13]; Table II, 1.12 kg/h): 1 (25-49% control)
post-emergence herbicidal activity index (Velvetleaf [13]; Table II, 5.6 kg/h): 4 (100% control)
post-emergence herbicidal activity index (Soybean; 0.28 kg/h): 0 (0- 24% control)
post-emergence herbicidal activity index (Soybean; 1.12 kg/h): 1 (25-49% control)
post-emergence herbicidal activity index (Soybean; 5.6 kg/h): 3 (75-99% control)
post-emergence herbicidal activity index (Morningglory [14]; Table I, 5.6 kg/h): 2 (50-74% control)
post-emergence herbicidal activity index (Morningglory [14]; Table I, 11.2 kg/h): 3 (75-99% control)
post-emergence herbicidal activity index (Morningglory [14]; Table II, 0.28 kg/h): 0 (0- 24% control)
post-emergence herbicidal activity index (Morningglory [14]; Table II, 1.12 kg/h): 2 (50-74% control)
post-emergence herbicidal activity index (Morningglory [14]; Table II, 5.6 kg/h): 3 (75-99% control)
post-emergence herbicidal activity index (Johnsongrass [15]; 5.6 kg/h): 2 (50-74% control)
post-emergence herbicidal activity index (Johnsongrass [15]; 11.2 kg/h): 3 (75-99% control)
post-emergence herbicidal activity index (Sugar Beet; 0.28 kg/h): 0 (0- 24% control)
post-emergence herbicidal activity index (Sugar Beet; 1.12 kg/h): 1 (25-49% control)
post-emergence herbicidal activity index (Sugar Beet; 5.6 kg/h): 4 (100% control)
post-emergence herbicidal activity index (Quackgrass [16]; 5.6 kg/h): 0 (0- 24% control)
post-emergence herbicidal activity index (Quackgrass [16]; 11.2 kg/h): 1 (25-49% control)
post-emergence herbicidal activity index (Smartweed; Table I, 5.6 kg/h): 2 (50-74% control)
post-emergence herbicidal activity index (Smartweed; Table I, 11.2 kg/h): 2 (50-74% control)
post-emergence herbicidal activity index (Smartweed; Table II, 0.28 kg/h): 0 (0- 24% control)
post-emergence herbicidal activity index (Smartweed; Table II, 5.6 kg/h): 4 (100% control)
post-emergence herbicidal activity index (Yellow Nutsedge [17]; 5.6 kg/h): 1 (25-49% control)
post-emergence herbicidal activity index (Yellow Nutsedge [17]; 11.2 kg/h): 1 (25-49% control)
post-emergence herbicidal activity index (Wild Buckwheat; 0.28 kg/h): 0 (0- 24% control)
post-emergence herbicidal activity index (Wild Buckwheat; 1.12 kg/h): 1 (25-49% control)
post-emergence herbicidal activity index (Wild Buckwheat; 5.6 kg/h): 4 (100% control)
post-emergence herbicidal activity index (Downy Brome [18]; Table I, 5.6 kg/h): 2 (50-74% control)
post-emergence herbicidal activity index (Downy Brome [18]; Table I, 11.2 kg/h): 3 (75-99% control)
post-emergence herbicidal activity index (Downy Brome [18]; Table II, 0.28 kg/h): 0 (0- 24% control)
post-emergence herbicidal activity index (Downy Brome [18]; Table II, 1.12 kg/h): 2 (50-74% control)
post-emergence herbicidal activity index (Downy Brome [18]; Table II, 5.6 kg/h): 4 (100% control)
post-emergence herbicidal activity index (Wheat; 0.28 kg/h): 0 (0- 24% control)
post-emergence herbicidal activity index (Wheat; 1.12 kg/h): 1 (25-49% control)
post-emergence herbicidal activity index (Wheat; 5.6 kg/h): 3 (75-99% control)
post-emergence herbicidal activity index (Panicum Spp; 0.28 kg/h): 0 (0- 24% control)
post-emergence herbicidal activity index (Panicum Spp; 1.12 kg/h): 2 (50-74% control)
post-emergence herbicidal activity index (Panicum Spp; 5.6 kg/h): 4 (100% control)
post-emergence herbicidal activity index (Canada Thistle; 5.6 kg/h): 1 (25-49% control)
post-emergence herbicidal activity index (Canada Thistle; 11.2 kg/h): 2 (50-74% control)
post-emergence herbicidal activity index (Rice; 0.28 kg/h): 0 (0- 24% control)
post-emergence herbicidal activity index (Rice; 1.12 kg/h): 0 (0- 24% control)
post-emergence herbicidal activity index (Rice; 5.6 kg/h): 3 (75-99% control)
post-emergence herbicidal activity index (Crabgrass; 0.28 kg/h): 0 (0- 24% control)
post-emergence herbicidal activity index (Crabgrass; 1.12 kg/h): 4 (100% control)
post-emergence herbicidal activity index (Crabgrass; 5.6 kg/h): 4 (100% control)
